In patent US10117430B2, “Malononitrile compounds for controlling animal pests” (BASF SE, priority 2012, dated 2018):

How the values were obtained:
Format in all cases: in vivo
[1] = system: Rice brown plant hopper (Nilaparvata lugens); experiment: B.11 Rice brown plant hopper test on sprayed rice seedlings; conditions: in comparison with untreated controls, after 72 hours
Summary of the method: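 Compounds formulated in 50:50 acetone:water with 0.1% vol/vol surfactant and sprayed onto potted rice seedlings. Air-dried plants were caged, infested with 10 adults and held at about 28-29 °C, 50-60% RH. Percent mortality scored after 72 hours.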

[2] = system: Yellow Fever Mosquito (Aedes aegypti); experiment: whole plant or invertebrate; conditions: 48 h, in comparison with untreated controls, larval mortality after 2 days
Summary of the method: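 Freshly hatched larvae (5-15 per well) in 200 μl tap water; compounds formulated in 75% water/25% DMSO and sprayed at 2.5 μl per well at several concentrations, two replicates. Incubated 2 days at 28±1° C., 80±5% RH; larval mortality scored visually.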

[3] = system: Silverleaf Whitefly (Bemisia argentifolii); experiment: B.5 Silverleaf whitefly test on sprayed cotton plants; conditions: 72 h, in comparison with untreated controls, 3 days after treatment
Summary of the method: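 Cotyledon-stage cotton plants were electrostatically sprayed with compound diluted from a 10,000 ppm cyclohexanone stock into 50% acetone/water with 0.01% nonionic surfactant. After drying, 10–12 adult whiteflies (3–5 days old) were released onto each plant. Mortality was scored after 3 days at 25 °C and 20–40% RH against untreated plants.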

[4] = system: Cowpea Aphid (Aphis craccivora); experiment: B.1 Cowpea aphid spray test on potted cowpea plants; conditions: in comparison with untreated controls, population reduction assessed after 24, 72 and 120 hours
Method: B.1 Cowpea Aphid (Aphis craccivora)
The active compounds were formulated in 50:50 (v/v) acetone:water. The test solution was prepared at the day of use. Potted cowpea plants colonized with approximately 100-150 aphids of various stages were sprayed after the pest population has been recorded. Population reduction was assessed after 24, 72, and 120 hours.

[5] = system: Southern Armyworm (Spodoptera eridania); experiment: B.6 Southern armyworm test on sprayed lima bean plants; conditions: 96 h, in comparison with untreated controls, 4 days after treatment
Method: B.6 Southern Armyworm (Spodoptera eridania)
The active compounds were formulated in cyclohexanone as a 10,000 ppm solution supplied in 1.3 ml ABgene® tubes. These tubes were inserted into an automated electrostatic sprayer equipped with an atomizing nozzle and they served as stock solutions for which lower dilutions were made in 50% acetone:50% water (v/v). A nonionic surfactant (Kinetic®) was included in the solution at a volume of 0.01% (v/v). Lima bean plants (variety Sieva) were grown 2 plants to a pot and selected for treatment at the 1st true leaf stage. Test solutions were sprayed onto the foliage by an automated electrostatic plant sprayer equipped with an atomizing spray nozzle. The plants were dried in the sprayer fume hood and then removed from the sprayer. Each pot was placed into perforated plastic bags with a zip closure. Ten to 11 armyworm larvae were placed into the bag and the bags zipped closed. Test plants were maintained in a growth room at 25° C. and 20-40% relative humidity for 4 days, avoiding direct exposure to fluorescent light (24 hour photoperiod) to prevent trapping of heat inside the bags. Mortality and reduced feeding were assessed 4 days after treatment, compared to untreated control plants.

[6] = system: Green Peach Aphid (Myzus persicae); experiment: B.13 Green peach aphid test on sprayed bell pepper plants; conditions: 120 h, in comparison with untreated controls, after 5 days
Excerpt: B.13 Green Peach Aphid (Myzus persicae)
The active compounds were formulated in cyclohexanone as a 10,000 ppm solution supplied in tubes. The tubes were inserted into an automated electrostatic sprayer equipped with an atomizing nozzle and they served as stock solutions for which lower dilutions were made in 50% acetone:50% water (v/v). A nonionic surfactant (Kinetic®) was included in the solution at a volume of 0.01% (v/v). Bell pepper plants at the first true-leaf stage were infested prior to treatment by placing heavily infested leaves from the main colony on top of the treatment plants. Aphids were allowed to transfer overnight to accomplish an infestation of 30-50 aphids per plant and the host leaves were removed. The infested plants were then sprayed by an automated electrostatic plant sprayer equipped with an atomizing spray nozzle. The plants were dried in the sprayer fume hood, removed, and then maintained in a growth room under fluorescent lighting in a 24-hr photoperiod at about 25° C. and about 20-40% relative humidity. Aphid mortality on the treated plants, relative to mortality on untreated control plants, was determined after 5 days.

[7] = system: Green Peach Aphid (Myzus persicae); experiment: B.3 Green peach aphid systemic test, artificial diet under membrane; conditions: 72 h, concentration of the test solution 2500 mg/L, 3 days
Summary of the method: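 Systemic uptake from artificial liquid diet beneath a membrane, compound formulated in 75% water/25% DMSO and added to diet at several concentrations, two replicates. 5-8 adult aphids fed on treated diet for 3 days at about 23±1° C. and 50±5% RH. Mortality and fecundity scored visually.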

[8] = system: Cotton Aphid (Aphis gossypii, Mixed Life Stages); experiment: B.14 Cotton aphid test on sprayed cotton plants; conditions: 120 h, in comparison with untreated controls, after 5 days
Method: B.14 Cotton Aphid (Aphis gossypii, Mixed Life Stages)
The active compounds were formulated in cyclohexanone as a 10,000 ppm solution supplied in 1.3 ml ABgene® tubes. These tubes were inserted into an automated electrostatic sprayer equipped with an atomizing nozzle and they served as stock solutions for which lower dilutions were made in 50% acetone:50% water (v/v). A nonionic surfactant (Kinetic®) was included in the solution at a volume of 0.01% (v/v). Cotton plants at the cotyledon stage were infested with aphids prior to treatment by placing a heavily infested leaf from the main aphid colony on top of each cotyledon. Aphids were allowed to transfer overnight to accomplish an infestation of 80-100 aphids per plant and the host leaf was removed. The infested plants were then sprayed by an automated electrostatic plant sprayer equipped with an atomizing spray nozzle. The plants were dried in the sprayer fume hood, removed from the sprayer, and then maintained in a growth room under fluorescent lighting in a 24-hr photoperiod at 25° C. and 20-40% relative humidity. Aphid mortality on the treated plants, relative to mortality on untreated control plants, was determined after 5 days.

[9] = system: Boll Weevil (Anthonomus grandis); experiment: B.9 Boll weevil microtiter diet test, egg and larval mortality; conditions: 120 h, in comparison with untreated controls, egg and larval mortality after 5 days
Summary of the method: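 Insect diet carrying 20-30 A. grandis eggs per well was sprayed with compounds formulated in 75% water/25% DMSO, at various concentrations with two replicates. Plates were held at about 23±1° C and 50±5% RH for 5 days. Egg and larval mortality were then scored visually.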

CC(c1ccc(F)cn1)C(C#N)(C#N)c1ccccc1 (stereo not shown) [II-8]
≥ 75%: mortality at 300 ppm [1] | mortality at 2500 ppm [2] | mortality at 500 ppm [3] | mortality at 500 ppm [4] | mortality at 300 ppm ([5]; 300 ppm) | mortality at 500 ppm ([5]; 500 ppm) | mortality at 300 ppm [6] | mortality at 2500 µg/mL [7] | mortality at 300 ppm [8] | mortality at 2500 ppm [9]
